Measured values reported in patent US20070105721A1, “Vinylogous 4-Hpyrones and their use in promoting plant growth” (priority 2003, published 2007).

Tests used:
[1] = tested on: Stylidium affine seeds; assay: Native bioassay; assay type: in vivo
Experimental: Conostylis aculeata and Stylidium affine seeds were obtained from Nindethana seed service and stored before use. For testing of aqueous samples, three replicates of 20-30 sterilised seeds were added to UV sterilised petri dishes (90 mm), containing two Whatman No. 1 filter papers (7 cm) moistened with the filtered test solution (2.5 mL, 0.22 μm). MP water was used as a control for each experiment and dilutions of each sample were used to ensure the optimum concentration range for activity. Petri dishes were then sealed with parafilm and incubated in the dark at 20±1° C. The seeds were scored on a weekly basis with optimum germination achieved between 4-6 weeks.

[2] = tested on: intact or de-hulled Microlaena stipoides seeds; assay: Compound 1a as a replacement for de-hulling of grass species; assay type: in vivo; conditions: 100 ppb compound 1a
Experimental: Intact or de-hulled seeds were employed for this experiment. Seeds were de-hulled manually by carefully extracting the seeds from the surrounding palea and lemma. Three replicates of 25 intact or de-hulled seeds were placed on Petri dishes lined with seed germination paper. The Petri dishes were moistened with de-ionised water (control) or 100 ppb compound 1a. All species were incubated in constant darkness at 18° C. Germination (radicle emergence) was recorded every 2-3 days until germination had ceased.

In the case of `Cc1c2ccocc-2oc1=O` [Compound 1a, 3-Methyl-2H-furo[2,3-c]pyran-2-one], the Stylidium affine germination ([1]; 1/10 000 of compound 1a 1 mg/L) is reported as 39.9 (10.9) %, the Stylidium affine germination ([1]; 1/10 (of neat SW; of compound 1a 1 mg/L)) is reported as 83.4 (3.7) % and the Stylidium affine germination ([1]; 1/100 (of neat SW; of compound 1a 1 mg/L)) is reported as 71.8 (1.7) %. For the same molecule, the Stylidium affine germination ([1]; 1/1000 of compound 1a 1 mg/L) was 70.9 (3.1) %, the Stylidium affine germination ([1]; Neat (neat SW; compound 1a 1 mg/L), mean (SEM)) was 79.0 (3.1) % and the “Germination, Stylidium affine” value ([1]; compounds isolated from smoke, mean (SEM)) was 67.9 (2.5) %. The “Germination (%), Microlaena stipoides” value ([2]; De-hulled seeds) was 100 ± 0.0 a % and the “Germination (%), Microlaena stipoides” value ([2]; Intact seeds) was 78.3 ± 6.3 b %.
